Each compound was assayed against FLAG-tagged PDE2A1 (amino acids 2-941) (Homo sapiens (Human), UniProt O00408) (assay: IMAP TR-FRET PDE2A enzymatic assay). Conditions: 200 nM FAM-cAMP substrate, 11-point half-log dose-response.
Sequence of FLAG-tagged PDE2A1 (amino acids 2-941) (O00408 2-941): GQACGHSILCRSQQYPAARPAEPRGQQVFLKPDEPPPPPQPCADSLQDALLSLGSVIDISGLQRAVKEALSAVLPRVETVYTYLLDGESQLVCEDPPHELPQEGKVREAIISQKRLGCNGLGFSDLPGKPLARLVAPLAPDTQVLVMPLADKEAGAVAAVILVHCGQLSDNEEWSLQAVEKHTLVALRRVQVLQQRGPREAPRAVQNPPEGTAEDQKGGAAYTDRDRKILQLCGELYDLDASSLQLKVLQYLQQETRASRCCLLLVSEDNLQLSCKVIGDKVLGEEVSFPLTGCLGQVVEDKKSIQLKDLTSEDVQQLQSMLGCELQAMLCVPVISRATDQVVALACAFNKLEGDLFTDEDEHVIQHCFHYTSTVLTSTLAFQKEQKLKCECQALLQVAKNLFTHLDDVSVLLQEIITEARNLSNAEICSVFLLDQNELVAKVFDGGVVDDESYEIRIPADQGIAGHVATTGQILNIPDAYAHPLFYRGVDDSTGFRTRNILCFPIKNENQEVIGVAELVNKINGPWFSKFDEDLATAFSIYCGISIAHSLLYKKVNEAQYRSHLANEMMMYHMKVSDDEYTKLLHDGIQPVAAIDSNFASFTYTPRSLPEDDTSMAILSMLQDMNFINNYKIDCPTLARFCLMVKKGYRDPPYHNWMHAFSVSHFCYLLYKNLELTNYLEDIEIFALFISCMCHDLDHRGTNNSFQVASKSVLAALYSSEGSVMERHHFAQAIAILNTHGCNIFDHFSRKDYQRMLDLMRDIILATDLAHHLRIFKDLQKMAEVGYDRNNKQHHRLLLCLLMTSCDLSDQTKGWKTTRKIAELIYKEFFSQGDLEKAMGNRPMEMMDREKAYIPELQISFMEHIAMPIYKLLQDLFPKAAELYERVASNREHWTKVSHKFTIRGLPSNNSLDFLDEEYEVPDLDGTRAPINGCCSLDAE
Type: biochemical
Text: An IMAP TR-FRET-based phosphodiesterase assay was developed using the PDE2A isoform. IMAP technology is based on high-affinity binding of phosphate by immobilized metal (MIII) coordination complexes on nanoparticles. The IMAP “binding reagent” recognizes phosphate groups on AMP or GMP generated from cAMP or cGMP in a PDE reaction. Cyclic nucleotides that carry a phosphodiester bond and not a free phosphate are not recognized by the binding reagent. The time resolved fluorescence resonance energy transfer (TR-FRET) is afforded by a Terbium (Tb)-Donor pre-bound to the nanoparticles. FRET occurs when the fluorescent-labeled AMP or GMP product of a PDE reaction binds and comes into close proximity to the Tb-Donor complex. Due to the long lifetime of Tb fluorescence, detection can be run in time-resolved mode to reduce or eliminate interference from auto-fluorescent compounds.
The IMAP TR-FRET PDE2A assay was performed in 1536-well white plates. A total of 250 pg per well of FLAG-tagged PDE2A1 (amino acids 2-941) was dispensed in 2.5 μL IMAP assay buffer consisting of 10 mM Tris pH 7.2, 10 mM MgCl2, 1 mM DTT, and 0.1% fatty acid free BSA. 30 nL of compound was then added from 1 mM stocks in DMSO using a Kalypsys Pintool. Plates were incubated for 5 min at room temperature before dispensing 1.5 μL of 533 nM FAM-cAMP substrate for a final concentration of 200 nM. Following a brief centrifugation, plates were incubated for 30 min at room temperature. The assay was terminated by adding 5 μL IMAP binding reagent Tb complex to each well which was prepared according to manufacturer's recommendations (Molecular Devices). Plates were incubated an additional 90 minutes at room temperature and read on a Viewlux plate reader. All compounds were solvated at a concentration of 10 mM in DMSO and tested in 11-point half-log dose-response. Curve fitting and IC50 values were determined using a standard four parameter fit.
With `Cc1cc(C2CCOCC2)n2nc(NCc3cnn(-c4ccccc4)c3)nc2n1` [Example 17, 5-Methyl-7-(oxan-4-yl)-N-[(1-phenyl-1H-pyrazol-4-yl)methyl]-[1,2,4]triazolo[1,5-a]pyrimidin-2-amine] the “PDE2 (PIC50)” value was >7.
With `COc1cccc(-n2cc(CNc3nc4nc(C)cc(C5CCOCC5)n4n3)cn2)c1` [Example 31, N-{[1-(3-Methoxyphenyl)-1H-pyrazol-4-yl]methyl}-5-methyl-7-(oxan-4-yl)-[1,2,4]triazolo[1,5-a]pyrimidin-2-amine] the “PDE2 (PIC50)” value was >7.
With `Cc1cc(C2CCOCC2)n2nc(NCc3ccc4c(c3)CCO4)nc2n1` [Example 42, N-(2,3-Dihydro-1-benzofuran-5-ylmethyl)-5-methyl-7-(oxan-4-yl)-[1,2,4]triazolo[1,5-a]pyrimidin-2-amine] the “PDE2 (PIC50)” value was >7.
For `Cc1cc(C2CCOCC2)n2nc(NCc3cccc(Cl)c3)nc2n1` [Example 40, N-[(3-Chlorophenyl)methyl]-5-methyl-7-(oxan-4-yl)-[1,2,4]triazolo[1,5-a]pyrimidin-2-amine], the “PDE2 (PIC50)” value was >7.
`Cc1cncc(CNc2nc3nc(C)cc(C4CCOCC4)n3n2)c1` [Example 54, 5-Methyl-N-[(5-methylpyridin-3-yl)methyl]-7-(oxan-4-yl)-[1,2,4]triazolo[1,5-a]pyrimidin-2-amine] was tested, and the “PDE2 (PIC50)” value was >7.
`COc1ccc(CNc2nc3nc(C)cc(C4CCOCC4)n3n2)cc1Cl` [Example 21, N-[(3-Chloro-4-methoxyphenyl)methyl]-5-methyl-7-(oxan-4-yl)-[1,2,4]triazolo[1,5-a]pyrimidin-2-amine] was tested, and the “PDE2 (PIC50)” value was >7.
In the case of `Cc1cc(C2CCOCC2)n2nc(NCc3cc(-c4ccccc4)no3)nc2n1` [Example 37, 5-Methyl-7-(oxan-4-yl)-N-[(3-phenyl-1,2-oxazol-5-yl)methyl]-[1,2,4]triazolo[1,5-a]pyrimidin-2-amine], the “PDE2 (PIC50)” value is reported as >7.
With `Cc1cc(C2CCOCC2)n2nc(NCc3cc(F)cc(Br)c3)nc2n1` [Example 81, N-[(3-Bromo-5-fluorophenyl)methyl]-5-methyl-7-(oxan-4-yl)-[1,2,4]triazolo[1,5-a]pyrimidin-2-amine] the “PDE2 (PIC50)” value was >7.
In the case of `COc1ccc(CNc2nc3nc(C(F)F)cc(C4CCOCC4)n3n2)cc1` [Example 29, 5-(Difluoromethyl)-N-[(4-methoxyphenyl)methyl]-7-(oxan-4-yl)-[1,2,4]triazolo[1,5-a]pyrimidin-2-amine], the “PDE2 (PIC50)” value is reported as >7.
For `Cc1cc(C2CCOCC2)n2nc(NCc3cn(-c4ccccc4)nc3C)nc2n1` [Example 46, 5-Methyl-N-[(3-methyl-1-phenyl-1H-pyrazol-4-yl)methyl]-7-(oxan-4-yl)-[1,2,4]triazolo[1,5-a]pyrimidin-2-amine], the “PDE2 (PIC50)” value was >7.
For `Cc1cc(C2(C)CCOCC2)n2nc(NCc3cnn(-c4ccccc4)c3)nc2n1` [Example 62, 5-Methyl-7-(4-methyloxan-4-yl)-N-[(1-phenyl-1H-pyrazol-4-yl)methyl]-[1,2,4]triazolo[1,5-a]pyrimidin-2-amine], the “PDE2 (PIC50)” value was >7.
In the case of `Cc1cc(C2CCOCC2)n2nc(NCc3ccnc(C(F)(F)F)c3)nc2n1` [Example 59, 5-Methyl-7-(oxan-4-yl)-N-{[2-(trifluoromethyl)pyridin-4-yl]methyl}-[1,2,4]triazolo[1,5-a]pyrimidin-2-amine], the “PDE2 (PIC50)” value is reported as >7.
In the case of `Cc1cc(C2CCOCC2)n2nc(NCc3cc(Cl)ccc3F)nc2n1` [Example 13, N-(5-Chloro-2-fluorobenzyl)-5-methyl-7-(tetrahydro-2H-pyran-4-yl)-[1,2,4]triazolo[1,5-a]pyrimidin-2-amine], the “PDE2 (PIC50)” value is reported as >7.
With `COc1ccc(CNc2nc3nc(C)cc(C4CCOCC4)n3n2)c(F)c1` [Example 15, N-[(2-Fluoro-4-methoxyphenyl)methyl]-5-methyl-7-(oxan-4-yl)-[1,2,4]triazolo[1,5-a]pyrimidin-2-amine] the “PDE2 (PIC50)” value was >7.

Same assay, conditions: 200 nM FAM-cAMP substrate, 11-point half-log dose-response, read-out: PDE2 (PIC50)
In the case of `COc1cccc(CNc2nc3nc(C)cc(C4CCOCC4)n3n2)c1` [Example 24, N-[(3-Methoxyphenyl)methyl]-5-methyl-7-(oxan-4-yl)-[1,2,4]triazolo[1,5-a]pyrimidin-2-amine], the IC50 is reported as 0.1 to 1 µM.
`COc1ccc(CNc2nc3nc(C)cc(C(C)(C)OC)n3n2)cc1` [Example 77, N-[(4-Methoxyphenyl)methyl]-7-(2-methoxypropan-2-yl)-5-methyl-[1,2,4]triazolo[1,5-a]pyrimidin-2-amine] gave an IC50 of 1 to 10 µM.
`Cc1cc(C2CCOCC2)n2nc(NCc3ccccc3Cl)nc2n1` [Example 48, N-[(2-Chlorophenyl)methyl]-5-methyl-7-(oxan-4-yl)-[1,2,4]triazolo[1,5-a]pyrimidin-2-amine] showed an IC50 of 0.1 to 1 µM.
Work on `Cc1cc(C2CCOCC2)n2nc(NCc3ccc4c(c3)OC(F)(F)O4)nc2n1` [Example 45, N-[(2,2-Difluoro-2H-1,3-benzodioxol-5-yl)methyl]-5-methyl-7-(oxan-4-yl)-[1,2,4]triazolo[1,5-a]pyrimidin-2-amine] yielded an IC50 of 0.1 to 1 µM.
In the case of `Cc1cc(C2CCOCC2)n2nc(NCc3cn(CC(F)F)nc3C)nc2n1` [Example 65, N-{[1-(2,2-Difluoroethyl)-3-methyl-1H-pyrazol-4-yl]methyl}-5-methyl-7-(oxan-4-yl)-[1,2,4]triazolo[1,5-a]pyrimidin-2-amine], the IC50 is reported as 0.1 to 1 µM.
For `Cc1cc(C(C)C)n2nc(NCc3ccc4c(c3)CCC4)nc2n1` [Example 6, N-((2,3-Dihydro-1H-inden-5-yl)methyl)-7-isopropyl-5-methyl-[1,2,4]triazolo[1,5-a]pyrimidin-2-amine], the IC50 was 0.1 to 1 µM.
With `Cc1cc(C2CCOCC2)n2nc(NCc3ccc(F)cc3F)nc2n1` [Example 68, N-[(2,4-Difluorophenyl)methyl]-5-methyl-7-(oxan-4-yl)-[1,2,4]triazolo[1,5-a]pyrimidin-2-amine] the IC50 was 0.1 to 1 µM.
`CCC(C)c1cc(C)nc2nc(NCc3ccc(OC)cc3)nn12` (stereo not drawn) [Example 11, 7-(sec-butyl)-N-(4-Methoxybenzyl)-5-methyl-[1,2,4]triazolo[1,5-a]pyrimidin-2-amine] was tested, and the IC50 was 0.1 to 1 µM.
Compound `Cc1cc(C2CCOCC2)n2nc(NCc3ccc(F)cc3)nc2n1` [Example 57, N-[(4-Fluorophenyl)methyl]-5-methyl-7-(oxan-4-yl)-[1,2,4]triazolo[1,5-a]pyrimidin-2-amine] has an IC50 of 0.1 to 1 µM.
In the case of `COc1ccc(CNc2nc3nc(C)cc(C4CCOCC4)n3n2)cc1` [Example 1, N-(4-Methoxybenzyl)-5-methyl-7-(tetrahydro-2H-pyran-4-yl)-[1,2,4]triazolo[1,5-a]pyrimidin-2-amine], the IC50 is reported as 0.1 to 1 µM.
`Cc1cc(C2CCCC2)n2nc(NCc3ccc4c(c3)CCC4)nc2n1` [Example 5, 7-Cyclopentyl-N-((2,3-dihydro-1H-inden-5-yl)methyl)-5-methyl-[1,2,4]triazolo[1,5-a]pyrimidin-2-amine] was tested, and the IC50 was 0.1 to 1 µM.
In the case of `COc1ccc(F)c(CNc2nc3nc(C)cc(C4CCOCC4)n3n2)c1` [Example 32, N-[(2-Fluoro-5-methoxyphenyl)methyl]-5-methyl-7-(oxan-4-yl)-[1,2,4]triazolo[1,5-a]pyrimidin-2-amine], the IC50 is reported as 0.1 to 1 µM.
With `Cc1cc(C2CCOCC2)n2nc(NCc3cccc(F)c3)nc2n1` [Example 58, N-[(3-Fluorophenyl)methyl]-5-methyl-7-(oxan-4-yl)-[1,2,4]triazolo[1,5-a]pyrimidin-2-amine] the IC50 was 0.1 to 1 µM.
For `COc1ccc(CNc2nc3nc(C)cc(C4CCCO4)n3n2)cc1` (stereo not drawn) [Example 12, N-(4-Methoxybenzyl)-5-methyl-7-(tetrahydrofuran-2-yl)-[1,2,4]triazolo[1,5-a]pyrimidin-2-amine], the IC50 was 1 to 10 µM.
`Cc1cc(C2CCOCC2)n2nc(NCc3ccc(F)c(F)c3)nc2n1` [Example 56, N-[(3,4-Difluorophenyl)methyl]-5-methyl-7-(oxan-4-yl)-[1,2,4]triazolo[1,5-a]pyrimidin-2-amine] gave an IC50 of 0.1 to 1 µM.
`Cc1cc(C2CCOCC2)n2nc(NCc3c(F)cncc3F)nc2n1` [Example 70, N-[(3,5-Difluoropyridin-4-yl)methyl]-5-methyl-7-(oxan-4-yl)-[1,2,4]triazolo[1,5-a]pyrimidin-2-amine] gave an IC50 of 0.1 to 1 µM.
Compound `COc1ccc(CNc2nc3nc(C)cc(C4CCN(C(C)=O)CC4)n3n2)cc1` [Example 18, 1-[4-(2-[(4-Methoxyphenyl)methyl]amino-5-methyl-[1,2,4]triazolo[1,5-a]pyrimidin-7-yl)piperidin-1-yl]ethan-1-one] has an IC50 of 0.1 to 1 µM.
Compound `Cc1cc(CNc2nc3nc(C)cc(C4CCOCC4)n3n2)ccn1` [Example 35, 5-Methyl-N-[(2-methylpyridin-4-yl)methyl]-7-(oxan-4-yl)-[1,2,4]triazolo[1,5-a]pyrimidin-2-amine] has an IC50 of 0.1 to 1 µM.
In the case of `COc1ccc(CNc2nc3nc(C)cc(C4(C)CC4)n3n2)cc1` [Example 75, N-[(4-Methoxyphenyl)methyl]-5-methyl-7-(1-methylcyclopropyl)-[1,2,4]triazolo[1,5-a]pyrimidin-2-amine], the IC50 is reported as 0.1 to 1 µM.

Source: patent publication US10239882B2, “Substituted 5-methyl-[1,2,4]triazolo[1,5-a]pyrimidin-2-amine compounds as PDE2 inhibitors” (DART NEUROSCIENCE (CAYMAN) LTD., priority 2014, dated 2019)
